Experiments:
[1] = PBPK model input parameters: physicochemical
[2] = PBPK model input parameters: blood and plasma binding; assay type: in vitro ADME, human
[3] = Phase 1 safety and tolerability (treatment-emergent adverse events); assay type: in vivo, human
Procedure: Study design: A phase 1, randomized, double blind, placebo-controlled, single-center clinical study in 33 male healthy volunteers (HV) (19-54 years, 63.2-95.7 Kg) was conducted with leriglitazone HCl and divided in two parts: a single ascending dose (SAD) with three dose levels (30, 90 and 270 mg) in fasted conditions, followed with two dose levels (90 and 270 mg) in fed conditions; a multiple ascending dose (MAD) with a double-blind, parallel-design with two dose levels (135 and 270 mg) for 8 days and a separate cohort of subjects in an open-label parallel design with two dose levels (135 and 270 mg) including cerebrospinal fluid (CSF) collection on day 8. In the fasted conditions a fasting period of at least 4 hours was required before obtaining plasma samples. The food effect (FE) was assessed by comparing fasted with fed conditions (dosing after a high-fat breakfast per FDA definition with a calculated caloric content of 918 kcal). In the MAD part (fed) the medication was taken before a normal breakfast. Leriglitazone HCl was supplied by ChemConnection and an oral suspension of leriglitazone (20% w/v kleptose, 2% ethanol in 100 mM phosphate buffer pH=7.8) at 6 mg/ml was used in the study. Safety: Safety and tolerability assessments consisted of adverse events (AEs), clinical laboratory, vital signs, 12-lead electrocardiogram (ECG), and physical examination.

[4] = Single dose neuro-pk study in rats; assay type: in vivo; conditions: rat
Procedure: The ratio of unbound leriglitazone concentration in brain to unbound concentration in plasma (Kpu,u; Cb,u/Cp,u) was calculated dividing the unbound CSF Cmax by the unbound plasma Cmax. Fractions unbound in plasma (fu,p) to obtain the unbound Cmax values were already reported. Rodriguez-Pascau, L. et al., Sci. Transl. Med. 13, eabc0555 (2021).
In a single dose neuro-pk study in rats, at the efficacious dose of 17 mg/kg, the unbound brain concentration of leriglitazone was 175 ng/ml similar to the measured CSF concentration of 274 ng/ml (FIG. 7). Given the validity of CSF as a surrogate marker for brain unbound concentration was proven in rats, CSF levels of leriglitazone were measured in Phase 1 study and confirmed to be similar as in rodents. Unbound brain to plasma ratio (Kpu,u) of leriglitazone as a measure of brain distribution of free drug was 0.55 in humans and 0.25 in rats (Table 7).

CYP3A4 = CYP3A4 (Homo sapiens, UniProt P08684); experiment: Metabolism kinetics with recombinant CYP3A4; assay type: in vitro ADME; parameters: purchased ADMESCOPE, Finland; conditions: used initial concentrations; Km and Vmax could not be fitted
From the text: CYP2C8 and CYP3A4 were identified in vitro as the major contributing enzymes of leriglitazone with CYP2C8 mostly responsible for the formation of the main metabolite M3. Kinetic parameters of human CYP2C8 and CYP3A4 mediated metabolism of leriglitazone were studied in in vitro studies using recombinant CYP3A4 and CYP2C8 enzymes (ADMESCOPE, Finland). […] As the disappearance of leriglitazone was very slow especially at high initial concentrations, the accuracy of the fit was not as good as based on M3 formation. […] Thus, it was not possible to fit the kinetic parameters Km and Vmax.

Chain of CYP3A4 (P08684 whole entry): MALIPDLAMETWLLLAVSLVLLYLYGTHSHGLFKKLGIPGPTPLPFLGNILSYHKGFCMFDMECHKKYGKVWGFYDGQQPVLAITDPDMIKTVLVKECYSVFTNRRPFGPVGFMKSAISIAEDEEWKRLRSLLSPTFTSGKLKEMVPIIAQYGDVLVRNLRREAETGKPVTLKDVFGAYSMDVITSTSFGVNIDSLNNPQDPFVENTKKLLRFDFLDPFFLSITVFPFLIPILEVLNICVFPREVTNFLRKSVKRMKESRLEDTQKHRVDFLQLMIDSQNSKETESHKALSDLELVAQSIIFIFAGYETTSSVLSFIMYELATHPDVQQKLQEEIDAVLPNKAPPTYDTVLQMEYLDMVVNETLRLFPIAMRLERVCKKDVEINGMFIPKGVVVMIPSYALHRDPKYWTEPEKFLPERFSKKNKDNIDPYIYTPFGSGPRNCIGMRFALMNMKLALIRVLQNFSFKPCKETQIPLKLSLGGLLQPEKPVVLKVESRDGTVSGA

Compound type [1]: Diprotic Base | logP [1]: 2.47 | pKa ([1]; two values): 4.97 | B:P [2]: 0.73 | fugut [2]: 1 | fraction unbound ([2]; human, plasma): 0.04 | Kp ([4]; CSF and plasma (unbound), 17 mg/kg, unbound CSF Cmax / unbound plasma Cmax, read-out: Kpu, u based on CSF): 0.25 | AUC ([4]; plasma, 17 mg/kg single dose, read-out: Total plasma AUC): 102 µg·h/mL | Cmax ([4]; plasma, 17 mg/kg single dose, read-out: Total plasma Cmax): 21100 ng/mL | CSF Cmax ([4]; 17 mg/kg single dose): 274 ng/mL | Total brain AUC ([4]; 17 mg/kg single dose): 6.582 µg·h/mL | Total brain Cmax ([4]; 17 mg/kg single dose): 1337.6 ng/mL | Kpu, u based on CSF ([4]; 17 mg/kg, unbound CSF Cmax / unbound plasma Cmax): 0,25 | unbound brain concentration ([4]; efficacious dose of 17 mg/kg, single dose): 175 ng/mL | saturation of metabolism by recombinant CYP3A4 (CYP3A4): did not saturate
SMILES: CC(O)c1ccc(CCOc2ccc(CC3SC(=O)NC3=O)cc2)nc1 (stereo not drawn) [Leriglitazone, 5-[[4-[2-[5-(1-hydroxyethyl)pyridin-2-yl]ethoxy]phenyl]methyl]-1,3-thiazolidine-2,4-dione]
Gastrointestinal disorders: E ([3]; 135 mg, N = 9): 2 | Gastrointestinal disorders: n (%) ([3]; 135 mg, N = 9): 1 (11) | General disorders and administration site conditions: E ([3]; 135 mg, N = 9): 1 | General disorders and administration site conditions: n (%) ([3]; 135 mg, N = 9): 1 (11) | Metabolism and nutrition disorders: E ([3]; 135 mg, N = 9): 1 | Metabolism and nutrition disorders: n (%) ([3]; 135 mg, N = 9): 1 (11) | Musculoskeletal and connective tissue disorders: E ([3]; 135 mg, N = 9): 3 | Musculoskeletal and connective tissue disorders: n (%) ([3]; 135 mg, N = 9): 3 (33) | Nervous system disorders: E ([3]; 135 mg, N = 9): 5 | Nervous system disorders: n (%) ([3]; 135 mg, N = 9): 3 (33) | Renal and urinary disorders: E ([3]; 135 mg, N = 9): 1 | Renal and urinary disorders: n (%) ([3]; 135 mg, N = 9): 1 (11) | TEAEs Total: E ([3]; 135 mg, N = 9): 13 | TEAEs Total: n (%) ([3]; 135 mg, N = 9): 5 (56) | Eye disorders: E ([3]; 270 mg, N = 8): 2 | Eye disorders: n (%) ([3]; 270 mg, N = 8): 1 (13) | Gastrointestinal disorders: E ([3]; 270 mg, N = 8): 4 | Gastrointestinal disorders: n (%) ([3]; 270 mg, N = 8): 3 (38) | General disorders and administration site conditions: E ([3]; 270 mg, N = 8): 1 | General disorders and administration site conditions: n (%) ([3]; 270 mg, N = 8): 1 (13) | Infections and infestations: E ([3]; 270 mg, N = 8): 2 | Infections and infestations: n (%) ([3]; 270 mg, N = 8): 2 (25) | Musculoskeletal and connective tissue disorders: E ([3]; 270 mg, N = 8): 1 | Musculoskeletal and connective tissue disorders: n (%) ([3]; 270 mg, N = 8): 1 (13) | Nervous system disorders: E ([3]; 270 mg, N = 8): 3 | Nervous system disorders: n (%) ([3]; 270 mg, N = 8): 3 (38) | Respiratory, thoracic and mediastinal disorders: E ([3]; 270 mg, N = 8): 3 | Respiratory, thoracic and mediastinal disorders: n (%) ([3]; 270 mg, N = 8): 3 (38) | TEAEs Total: E ([3]; 270 mg, N = 8): 16 | TEAEs Total: n (%) ([3]; 270 mg, N = 8): 8 (100)
